Columns and labels:
Assay in all cases: relative viability (nuclei count vs DMSO), 5 days (fraction); higher = more cells survive
Venetoclax + Palbociclib = compound: CC1(C)CCC(CN2CCN(c3ccc(C(=O)NS(=O)(=O)c4ccc(NCC5CCOCC5)c([N+](=O)[O-])c4)c(Oc4cnc5[nH]ccc5c4)c3)CC2)=C(c2ccc(Cl)cc2)C1 [Venetoclax] + CC(=O)c1c(C)c2cnc(Nc3ccc(N4CCNCC4)cn3)nc2n(C2CCCC2)c1=O [Palbociclib] (partner 0.5 µM)
Method in brief: (§1)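 A single step with final 0.05% Triton X-100, 1% formaldehyde and 1 ug/ml Hoechst fixed the cells and stained nuclei 5 days after treatment. Lung cancer cell lines in 1536-well plates had been treated by pin tool the day after seeding with one drug alone or a fixed anchor-drug dose plus five library-drug doses (not always all listed) in √10 steps, and nuclei were counted on 4× images. Relative viability is the ratio of nuclei in treated wells to nuclei in vehicle wells, taken as the median of duplicate plates.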

Selumetinib + Pictilisib = compound: Cn1cnc2c(F)c(Nc3ccc(Br)cc3Cl)c(C(=O)NOCCO)cc21 [Selumetinib] + CS(=O)(=O)N1CCN(Cc2cc3nc(-c4cccc5[nH]ncc45)nc(N4CCOCC4)c3s2)CC1 [Pictilisib] (partner 1 µM)
Method in brief: as §1

Selumetinib + Navitoclax = compound: Cn1cnc2c(F)c(Nc3ccc(Br)cc3Cl)c(C(=O)NOCCO)cc21 [Selumetinib] + CC1(C)CCC(c2ccc(Cl)cc2)=C(CN2CCN(c3ccc(C(=O)NS(=O)(=O)c4ccc(N[C@H](CCN5CCOCC5)CSc5ccccc5)c(S(=O)(=O)C(F)(F)F)c4)cc3)CC2)C1 [Navitoclax] (partner 0.5 µM)
Method in brief: as §1

Selumetinib + Dasatinib = compound: Cn1cnc2c(F)c(Nc3ccc(Br)cc3Cl)c(C(=O)NOCCO)cc21 [Selumetinib] + Cc1nc(Nc2ncc(C(=O)Nc3c(C)cccc3Cl)s2)cc(N2CCN(CCO)CC2)n1 [Dasatinib] (partner 0.075 µM)
Method in brief: as §1

UMC-11
relative viability (Venetoclax + Palbociclib; first compound 0.01 µM): 0.37
relative viability (Venetoclax + Palbociclib; first compound 0.03162 µM): 0.334
relative viability (Venetoclax + Palbociclib; first compound 0.1 µM): 0.277
relative viability (Venetoclax + Palbociclib; first compound 0.3162 µM): 0.304
relative viability (Venetoclax + Palbociclib; first compound 1 µM): 0.324
relative viability (Selumetinib + Pictilisib; first compound 0.02 µM): 0.827
relative viability (Selumetinib + Pictilisib; first compound 0.06325 µM): 0.772
relative viability (Selumetinib + Pictilisib; first compound 0.2 µM): 0.869
relative viability (Selumetinib + Pictilisib; first compound 0.6325 µM): 0.922
relative viability (Selumetinib + Navitoclax; first compound 0.02 µM): 0.273
relative viability (Selumetinib + Navitoclax; first compound 0.06325 µM): 0.311
relative viability (Selumetinib + Navitoclax; first compound 0.2 µM): 0.3
relative viability (Selumetinib + Navitoclax; first compound 0.6325 µM): 0.314
relative viability (Selumetinib + Dasatinib; first compound 0.02 µM): 0.465
relative viability (Selumetinib + Dasatinib; first compound 0.06325 µM): 0.486
relative viability (Selumetinib + Dasatinib; first compound 0.2 µM): 0.474
relative viability (Selumetinib + Dasatinib; first compound 0.6325 µM): 0.547
